# Laboratory results taken from ChEMBL document CHEMBL1201862, “PubChem BioAssay data set” (2004).
#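 Interpolation was linear, between the two tested concentrations surrounding the appropriate level; five concentrations were tested over 48 hours in 96-well plates. GI50 marks 50% less growth.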 Active and inactive are the calls of the source. No stated cut-off is given here; in the data, active = GI50 up to about 1.1 µM and inactive = higher.
# How the values were obtained:
# Assay in all cases: NCI anticancer screen, dose series, 48 h
# [1] = tested on: M19-MEL
# [2] = tested on: XF498
# [3] = tested on: SK-MEL-2
# [4] = tested on: OVCAR-4
# [5] = tested on: LXFL 529
# [6] = tested on: KM-20L2
# [7] = tested on: SNB-75
# [8] = tested on: OVCAR-8
# [9] = tested on: HOP-18
# [10] = tested on: UO-31
# [11] = tested on: NCI-H522
# [12] = tested on: SNB-78
# [13] = tested on: HCC 2998
# [14] = tested on: UACC-62
# [15] = tested on: DU-145
# [16] = tested on: SK-MEL-5
# [17] = tested on: MDA-N
# [18] = tested on: IGROV-1
# [19] = tested on: NCI/ADR-RES
# [20] = tested on: HOP-62
# [21] = tested on: SN12C
# [22] = tested on: RXF 393
# [23] = tested on: A498
# [24] = tested on: K562
# [25] = tested on: M14
# [26] = tested on: SK-OV-3
# [27] = tested on: T47D
# [28] = tested on: MDA-MB-435
# [29] = tested on: CAKI-1
# [30] = tested on: DMS-273
# [31] = tested on: HCT-116
# [32] = tested on: OVCAR-5
# [33] = tested on: SF-268
# [34] = tested on: A549
# [35] = tested on: KM12
# [36] = tested on: COLO 205
# [37] = tested on: UACC-257
# [38] = tested on: NCI-H226
# [39] = tested on: BT-549
# [40] = tested on: SNB-19
# [41] = tested on: TK-10
# [42] = tested on: SF-295
# [43] = tested on: SF-539
# [44] = tested on: LOX IMVI
# [45] = tested on: Hs-578T
# [46] = tested on: RXF 631
# [47] = tested on: ACHN
# [48] = tested on: SK-MEL-28
# [49] = tested on: SR
# [50] = tested on: EKVX
# [51] = tested on: MCF7
# [52] = tested on: 786-0
# [53] = tested on: SW-620
# [54] = tested on: HOP-92
# [55] = tested on: MOLT-4
# [56] = tested on: PC-3
# [57] = tested on: NCI-H460
# [58] = tested on: HT-29
# [59] = tested on: OVCAR-3
# [60] = tested on: HL-60
# [61] = tested on: Malme-3M
# [62] = tested on: CCRF-CEM
# [63] = tested on: DLD-1
# [64] = tested on: DMS-114
# [65] = tested on: MDA-MB-231
# [66] = tested on: NCI-H23
# [67] = tested on: U-251
# [68] = tested on: RPMI-8226
compound,measurement,setting,value
C/C(=N\NC(=S)N1CCCCCC1)c1ccccn1,GI50,[1],88.3 nM (active)
same,GI50,[2],1.4 nM (active)
same,GI50,[3],132 nM (active)
same,GI50,[4],185 nM (active)
same,GI50,[5],< 1 nM (active)
same,GI50,[6],< 1 nM (active)
same,GI50,[7],69.2 nM (active)
same,GI50,[8],3.83 nM (active)
same,GI50,[9],123 nM (active)
same,GI50,[10],543 nM (active)
same,GI50,[11],62.4 nM (active)
same,GI50,[12],741 nM (active)
same,GI50,[13],158 nM (active)
same,GI50,[14],8.81 nM (active)
same,GI50,[15],986 nM (active)
same,GI50,[16],8.05 nM (active)
same,GI50,[17],420 nM (active)
same,GI50,[18],1.62 nM (active)
same,GI50,[19],10 nM (active)
same,GI50,[20],75 nM (active)
same,GI50,[21],548 nM (active)
same,GI50,[22],553 nM (active)
same,GI50,[23],697 nM (active)
same,GI50,[24],2.88 nM (active)
same,GI50,[25],26.6 nM (active)
same,GI50,[26],6.65 nM (active)
same,GI50,[27],4.38 nM (active)
same,GI50,[28],601 nM (active)
same,GI50,[29],16.2 nM (active)
same,GI50,[30],< 1 nM (active)
same,GI50,[31],2.07 nM (active)
same,GI50,[32],897 nM (active)
same,GI50,[33],405 nM (active)
same,GI50,[34],27.1 nM (active)
same,GI50,[35],25.8 nM (active)
same,GI50,[36],2.44 nM (active)
same,GI50,[37],12.8 nM (active)
same,GI50,[38],565 nM (active)
same,GI50,[39],170 nM (active)
same,GI50,[40],52.1 nM (active)
same,GI50,[41],573 nM (active)
same,GI50,[42],< 18.7 nM (active)
same,GI50,[43],50.6 nM (active)
same,GI50,[44],65.6 nM (active)
same,GI50,[45],322 nM (active)
same,GI50,[46],38.6 nM (active)
same,GI50,[47],4.05 nM (active)
same,GI50,[48],1180 nM (inactive)
same,GI50,[49],3.92 nM (active)
same,GI50,[50],64.1 nM (active)
same,GI50,[51],2.2 nM (active)
same,GI50,[52],35.2 nM (active)
same,GI50,[53],14.8 nM (active)
same,GI50,[54],10 nM (active)
same,GI50,[55],6.76 nM (active)
same,GI50,[56],11 nM (active)
same,GI50,[57],16.4 nM (active)
same,GI50,[58],< 1 nM (active)
same,GI50,[59],< 1 nM (active)
same,GI50,[60],2.1 nM (active)
same,GI50,[61],31.6 nM (active)
same,GI50,[62],3.83 nM (active)
same,GI50,[63],< 1 nM (active)
same,GI50,[64],< 1 nM (active)
same,GI50,[65],24.9 nM (active)
same,GI50,[66],8.97 nM (active)
same,GI50,[67],5.22 nM (active)
same,GI50,[68],4.05 nM (active)
